According to patent US20160151270A1, “Peptide-Based Compositions and Methods of Use” (Geoffrey Brooks Consultants LLC, priority 2014, published 2016):
Residues, ends and D or L forms follow the SMILES beside them.

Tests used:
[1] = test system: TGF-β; assay: TGF-β like activity of cytomodulin analogs; conditions: compared with TGF-β and cytomodulin
Text: As first introduced in the present inventor's U.S. Pat. No. 5,780,436, which is hereby incorporated by reference in its entirety, using cytomudulin as a guide, two initial cytomodulin analogs, L-I-A-E-A-K (SEQ ID NO: 2) and L-I-A-P-E-A (SEQ ID NO: 3) were designed, synthesized, and tested. In both peptides, -V-A-, was replaced by -I-A- and the first two N-terminal amino acid sequence of cytomodulin was replaced with leucine. In SEQ ID NO: 2, glutamic acid is at position i+3 since it is the first side-chain after the β-bend structure. In SEQ ID NO: 3, proline is at position i+3.
Analogs of SEQ ID NO: 2 and SEQ ID NO: 3 were made to further probe the sequence requirements for TGF-β like activity. To that end, the following peptides were made:
SEQ ID NOs 4-6, which are minor variants of SEQ ID NO: 2, mimicked the biological activities of TGF-β and cytomodulin. […] Alternatively, all peptides with the sequences represented by SEQ ID NOs: 9-16 mimicked at least one biological activity of TGF-β to some degree.

[2] = safety testing of cosmetic grade cytomodulin as a topically administered ingredient
Text: In particular, the heptapeptide TGF-β mimic, A-N-V-A-E-N-A (SEQ ID NO: 1), termed “cytomodulin,” has been examined and tested as an ingredient in compositions with the potential for improving the condition of skin upon application; a cosmetic grade cytomodulin was first synthesized according to U.S. Pat. No. 5,661,127 and subsequently tested to ensure both its efficacy and safety as a topically administered ingredient.

Row | Molecule | TGF-β like activity [1] | toxicity [2]
1 | L-I-A-P-E-A (LIAPEA; TGF-beta mimic) [SEQ ID NO: 3, cytomodulin analog] | at least as much TGF-β like activity as cytomodulin | 
2 | CC(C)[C@H](NC(=O)[C@H](CC(N)=O)NC(=O)[C@H](C)N)C(=O)N[C@@H](C)C(=O)N[C@@H](CCC(=O)O)C(=O)N[C@@H](CC(N)=O)C(=O)N[C@@H](C)C(=O)O [cytomodulin, A-N-V-A-E-N-A] (H-ANVAENA-OH) |  | completely non-toxic
3 | L-I-A-E-A-K (LIAEAK; TGF-beta mimic) [SEQ ID NO: 2, cytomodulin analog] | at least as much TGF-β like activity as cytomodulin | 
